Measured values published in patent publication US12122761B2, “2-azaspiro[3.4]octane derivatives as M4 agonists” (NOVARTIS AG, priority 2019, dated 2024).
Where two headings read alike, the source gives them in different places.

Experiments:
[1] = target: T1, human cloned CHRM5 receptor (M5_CHO) (Homo sapiens, UniProt P08912); experiment: CHRM5 Ca++ Flux Assay (agonist mode, FDSS 7000EX); format: cell-based; details: for M5 FDSS PA: Percent Activity measured to EC100 of Carbachol; for EC50: agonist mode, geometric mean if tested more than once, read-out: M5 FDSS EC50
T1 construct: expressed in transfected cells; host or cells: CHO (M5_CHO)
T1 sequence (P08912 1-532): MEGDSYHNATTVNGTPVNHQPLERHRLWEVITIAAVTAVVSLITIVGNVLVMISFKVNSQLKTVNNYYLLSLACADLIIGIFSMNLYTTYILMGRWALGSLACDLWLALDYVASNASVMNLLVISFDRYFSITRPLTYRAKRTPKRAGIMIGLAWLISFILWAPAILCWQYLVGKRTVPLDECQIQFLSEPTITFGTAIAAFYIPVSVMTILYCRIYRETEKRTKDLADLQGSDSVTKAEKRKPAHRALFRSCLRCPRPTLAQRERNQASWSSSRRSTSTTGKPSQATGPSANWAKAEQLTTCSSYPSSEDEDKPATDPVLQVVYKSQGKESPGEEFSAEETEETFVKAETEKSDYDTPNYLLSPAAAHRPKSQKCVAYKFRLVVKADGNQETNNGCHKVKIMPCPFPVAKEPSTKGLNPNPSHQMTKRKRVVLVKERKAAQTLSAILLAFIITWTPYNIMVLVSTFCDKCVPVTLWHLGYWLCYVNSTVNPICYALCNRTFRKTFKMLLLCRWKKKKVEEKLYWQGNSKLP
In short: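 Agonist-mode calcium flux: 11-point dose responses, triplicate wells, fluorescence followed for 3 minutes. Cells are M3_CHO or M5_CHO lines (human receptors) with Ca++ indicator in probenecid-containing HEPES/HBSS buffer. Percent activity is referenced to carbachol EC100, and curves come from four-parameter nonlinear regression.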

[2] = target: T2, human cloned CHRM2 receptor (M2_CHO cells) (Homo sapiens, UniProt P08172); experiment: CHRM2 Ca++ Flux Assay (agonist mode, FDSS 7000EX); format: cell-based; details: for M2 FDSS PA: Percent Activity measured to EC100 of Carbachol; for EC50: agonist mode, geometric mean if tested more than once, read-out: M2 FDSS EC50
T2 construct: expressed in transfected cells; host or cells: CHO-K1
T2 sequence (P08172 1-466): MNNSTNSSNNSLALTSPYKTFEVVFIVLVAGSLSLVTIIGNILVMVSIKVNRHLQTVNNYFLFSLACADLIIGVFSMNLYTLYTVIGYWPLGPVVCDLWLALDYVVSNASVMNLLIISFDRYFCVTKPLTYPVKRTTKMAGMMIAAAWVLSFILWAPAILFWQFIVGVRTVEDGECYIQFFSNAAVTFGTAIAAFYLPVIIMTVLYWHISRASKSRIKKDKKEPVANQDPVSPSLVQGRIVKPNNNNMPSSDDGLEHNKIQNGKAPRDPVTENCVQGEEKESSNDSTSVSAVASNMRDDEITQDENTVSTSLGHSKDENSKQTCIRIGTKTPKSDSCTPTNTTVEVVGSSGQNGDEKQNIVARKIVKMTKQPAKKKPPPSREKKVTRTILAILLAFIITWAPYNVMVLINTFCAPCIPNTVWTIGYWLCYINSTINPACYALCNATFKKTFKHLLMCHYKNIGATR
Protocol: The above examples were characterized by measuring the intracellular mobilization of Ca++ ions caused by signaling events mediated by the receptor. The Intra-cellular Calcium flux levels were captured by the highly sensitive Ca++ indicator, Calcium Assay Kit (BD Biosciences, Catalog Number 640178). The fluorescent activity from all receptors were monitored by the fluorescent imager, FDSS 7000EX (Hamamatsu) over a span of 3 minutes.
CHO-K1 cells stably expressing the human cloned CHRM2 receptor (M2_CHO cells) were grown and maintained in a monolayer culture with F12/HAM (Life Technologies) supplemented with 10% Fetal Bovine Serum, 1× Pen-Strep, and 0.4 mg/mL Geneticin in a humidified atmosphere (5% CO2) at 37° C. The cultures were grown to 80-9 0% confluency in T150 flasks (Corning) and washed with 1×DPBS and lifted with 0.05% Trypsin (Life Technologies). The cells were then spun (1K rpm, 3 minutes) and frozen using Recovery Cell Culture Freezing Media (Gibco Technologies). Cells were stored in liquid nitrogen and thawed a day before the assay.
Prior to the day of the assay, stable M2 CHO cells were thawed and plated on Greiner 384 well TC treated plate at a density of 12K cells/well and kept overnight in a humidified atmosphere (5% CO2) at 37° C. The following day, the cells were loaded with Ca^++ dye (BD Biosciences) using Loading Buffer (HBSS +Ca/+Mg, 20 mM HEPES, 2.5 mM Probenecid) and placed back in cell incubator for a minimum of 1 hour and maximum of 2 hours. After incubation, the dye was replaced with Assay Buffer (HBSS −Ca/−Mg, 20 mM HEPES, 2.5 mM Probenecid) supplemented with 20 μM ATP (Sigma Aldrich) and kept at room temperature for 60 minutes prior before running on cell imager. The FDSS 7000EX (Hamamatsu) was used to acquire Ca^++ traces from cells in response to compound treatment and the data was used to generate dose response curves in agonist mode. All compounds were serially diluted in DMSO then prepared in Assay Buffer for Ca^++ flux studies. The dose response curves were generated from the average of triplicate wells obtained from each data point and used a non-linear regression of four parameter dose response algorithm. The Percent Activity (PA) was measured to EC100 of Carbachol.

| SMILES | M5 FDSS PA [1] [%] | EC50 [1] [µM] | M2 FDSS PA [2] [%] | M5 FDSS PA ([1]; citrate salt) [%] | EC50 ([1]; citrate salt) [µM] | M2 FDSS PA ([2]; citrate salt) [%] | EC50 ([2]; citrate salt) [µM] | EC50 [2] [µM] |
| --- | --- | --- | --- | --- | --- | --- | --- | --- |
| Cc1nc(COc2ccccc2C2CCN([C@@H]3CCC4(C3)CN(C(=O)C3(F)CC3)C4)CC2)no1 (single isomer, unassigned) [Example 7Z, (R)-(1-fluorocyclopropyl)(6-(4-(2-((5-methyl-1,2,4-oxadiazol-3-yl)methoxy)phenyl)piperidin-1-yl)-2-azaspiro[3.4]octan-2-yl)methanone or (S)-(1-fluorocyclopropyl)(6-(4-(2-((5-methyl-1,2,4-oxadiazol-3-yl)methoxy)phenyl)piperidin-1-yl)-2-azaspiro[3.4]octan-2-yl)methanone] | 0 | > 25 | 0 |  |  |  |  |  |
| COc1ccc(Cl)cc1C1CCN([C@H]2CCC3(C2)CN(C(=O)C2(F)CC2)C3)CC1 (single isomer, unassigned) [Example 8A, (S)-(6-(4-(5-chloro-2-methoxyphenyl)piperidin-1-yl)-2-azaspiro[3.4]octan-2-yl)(1-fluorocyclopropyl)methanone or (R)-(6-(4-(5-chloro-2-methoxyphenyl)piperidin-1-yl)-2-azaspiro[3.4]octan-2-yl)(1-fluorocyclopropyl)methanone] | 0 | > 25 | 0 |  |  |  |  |  |
| COc1ccc(Cl)cc1C1CCN([C@H]2CCC3(C2)CN(C(=O)C2(F)CC2)C3)CC1 (single isomer, unassigned) [Example 8B, (S)-(6-(4-(5-chloro-2-methoxyphenyl)piperidin-1-yl)-2-azaspiro[3.4]octan-2-yl)(1-fluorocyclopropyl)methanone or (R)-(6-(4-(5-chloro-2-methoxyphenyl)piperidin-1-yl)-2-azaspiro[3.4]octan-2-yl)(1-fluorocyclopropyl)methanone] | 0 | > 25 | 0 |  |  |  |  |  |
| O=C(C1COC1)N1CC2(CC[C@H](N3CCC(c4ccccc4OC(F)F)CC3)C2)C1.O=C(O)CC(O)(CC(=O)O)C(=O)O (single isomer, unassigned) [Example 8E, (S)-(6-(4-(2-(difluoromethoxy)phenyl)piperidin-1-yl)-2-azaspiro[3.4]octan-2-yl)(oxetan-3-yl)methanone or (R)-(6-(4-(2-(difluoromethoxy)phenyl)piperidin-1-yl)-2-azaspiro[3.4]octan-2-yl)(oxetan-3-yl)methanone citrate salt] |  |  |  | 1 | 2.16 | 26 | 0.096 |  |
| O=C(C1COC1)N1CC2(CC[C@H](N3CCC(c4ccccc4OC(F)F)CC3)C2)C1.O=C(O)CC(O)(CC(=O)O)C(=O)O (single isomer, unassigned) [Example 8F, (S)-(6-(4-(2-(difluoromethoxy)phenyl)piperidin-1-yl)-2-azaspiro[3.4]octan-2-yl)(oxetan-3-yl)methanone or (R)-(6-(4-(2-(difluoromethoxy)phenyl)piperidin-1-yl)-2-azaspiro[3.4]octan-2-yl)(oxetan-3-yl)methanone citrate salt] |  |  |  | 0 | > 25 | 0 |  |  |
| O=C(N1CC2(CC[C@@H](N3CCC(c4ccccc4OC(F)(F)F)CC3)C2)C1)C1(F)CC1 (single isomer, unassigned) [Example 9A, (R)-(1-fluorocyclopropyl)(6-(4-(2-(trifluoromethoxy)phenyl)piperidin-1-yl)-2-azaspiro[3.4]octan-2-yl)methanone or (S)-(1-fluorocyclopropyl)(6-(4-(2-(trifluoromethoxy)phenyl)piperidin-1-yl)-2-azaspiro[3.4]octan-2-yl)methanone] | 0 | > 25 | 31 |  |  |  |  | 11.8 |
| O=C(N1CC2(CC[C@@H](N3CCC(c4ccccc4OC(F)(F)F)CC3)C2)C1)C1(F)CC1 (single isomer, unassigned) [Example 9B, (R)-(1-fluorocyclopropyl)(6-(4-(2-(trifluoromethoxy)phenyl)piperidin-1-yl)-2-azaspiro[3.4]octan-2-yl)methanone or (S)-(1-fluorocyclopropyl)(6-(4-(2-(trifluoromethoxy)phenyl)piperidin-1-yl)-2-azaspiro[3.4]octan-2-yl)methanone] | 0 | > 25 | 0 |  |  |  |  |  |
| O=C(N1CC2(CC[C@@H](N3CCC(c4cc(F)ccc4OC4CCOCC4)CC3)C2)C1)C1(F)CC1 (single isomer, unassigned) [Example 9C, (R)-(6-(4-(5-fluoro-2-((tetrahydro-2H-pyran-4-yl)oxy)phenyl)piperidin-1-yl)-2-azaspiro[3.4]octan-2-yl)(1-fluorocyclopropyl)methanone or (S)-(6-(4-(5-fluoro-2-((tetrahydro-2H-pyran-4-yl)oxy)phenyl)piperidin-1-yl)-2-azaspiro[3.4]octan-2-yl)(1-fluorocyclopropyl)methanone] | 0 | > 25 | 0 |  |  |  |  |  |
| O=C(N1CC2(CC[C@@H](N3CCC(c4cc(F)ccc4OC4CCOCC4)CC3)C2)C1)C1(F)CC1 (single isomer, unassigned) [Example 9D, (R)-(6-(4-(5-fluoro-2-((tetrahydro-2H-pyran-4-yl)oxy)phenyl)piperidin-1-yl)-2-azaspiro[3.4]octan-2-yl)(1-fluorocyclopropyl)methanone or (S)-(6-(4-(5-fluoro-2-((tetrahydro-2H-pyran-4-yl)oxy)phenyl)piperidin-1-yl)-2-azaspiro[3.4]octan-2-yl)(1-fluorocyclopropyl)methanone] | 0 | > 25 | 0 |  |  |  |  | < 26 |
| O=C(N1CC2(CC[C@@H](N3CCC(c4ccccc4OC4CCOCC4)CC3)C2)C1)C1(F)CC1 (single isomer, unassigned) [Example 9E, (R)-(1-fluorocyclopropyl)(6-(4-(2-((tetrahydro-2H-pyran-4-yl)oxy)phenyl)piperidin-1-yl)-2-azaspiro[3.4]octan-2-yl)methanone or (S)-(1-fluorocyclopropyl)(6-(4-(2-((tetrahydro-2H-pyran-4-yl)oxy)phenyl)piperidin-1-yl)-2-azaspiro[3.4]octan-2-yl)methanone] | 0 | > 25 | 0 |  |  |  |  |  |
